The subject of test [1] is Staphylococcus aureus. Put plainly: Antimicrobial activity against high level levofloxacin and methicillin-resistant Staphylococcus aureus JCSC 6764 expressing gyrA Ser84Leu, gyrB Asp437Glu norA T389C and grlA Ser80Phe/Glu84Lys mutants by broth microdilution method. It is filed as functional.
The test system of test [2] is Staphylococcus aureus. Put plainly: Bactericidal activity against methicillin-resistant Staphylococcus aureus at 4 times MIC upto 60 mins by time-kill assay. It is filed as functional, organism-based.
Test [3] relates to Staphylococcus aureus. Put plainly: Bactericidal activity against low level levofloxacin and methicillin-resistant Staphylococcus aureus at 8 times MIC after 24 hrs by time-kill assay. It is filed as functional, organism-based.
Test [4] has as its system Staphylococcus aureus. The test can be described thus: Bactericidal activity against low level levofloxacin and methicillin-resistant Staphylococcus aureus at 16 times MIC after 120 mins by time-kill assay. It is filed as functional, organism-based.
Test [5] relates to Staphylococcus aureus. Put plainly: Bactericidal activity against low level levofloxacin and methicillin-resistant Staphylococcus aureus at 2048 ug/ml after 24 hrs by time-kill assay. It is filed as functional, organism-based.
Test [6] relates to Staphylococcus aureus. Put plainly: Bactericidal activity against high level levofloxacin and methicillin-resistant Staphylococcus aureus at 8 times MIC after 24 hrs by time-kill assay. It is filed as functional, organism-based.
The subject of test [7] is Staphylococcus aureus. Put plainly: Antimicrobial activity against low level levofloxacin and methicillin-resistant Staphylococcus aureus JCSC 6766 expressing gyrA Glu84Lys and grlA Ser80Phe mutants by broth microdilution method. It is filed as functional.
Test [8] concerns Staphylococcus aureus. The test can be described thus: Antimicrobial activity against low level levofloxacin and methicillin-resistant Staphylococcus aureus JCSC 6767 expressing gyrA Glu84Lys and grlA Ser80Phe mutants by broth microdilution method. It is filed as functional.
For test [9], the system named is Staphylococcus aureus. Put plainly: Bactericidal activity against levofloxacin-sensitive and methicillin-resistant Staphylococcus aureus at 2048 ug/ml after 24 hrs by time-kill assay. It is filed as functional, organism-based.
In test [10] the test system is Staphylococcus aureus. The test can be described thus: Bactericidal activity against levofloxacin-sensitive and methicillin-resistant Staphylococcus aureus at 4 times MIC after 24 hrs by time-kill assay. It is filed as functional, organism-based.
The subject of test [11] is Staphylococcus aureus. Put plainly: Bactericidal activity against levofloxacin-sensitive and methicillin-resistant Staphylococcus aureus at 8 times MIC after 24 hrs by time-kill assay. It is filed as functional, organism-based.
The subject of test [12] is Staphylococcus aureus. The test can be described thus: Antimicrobial activity against high level levofloxacin and methicillin-resistant Staphylococcus aureus JCSC 6765 expressing gyrA Ser84Leu, norA T389C and grlA Ser80Phe/Glu84Lys mutants by broth microdilution method. It is filed as functional.
Test [13] has as its system Staphylococcus aureus. The test can be described thus: Antimicrobial activity against high level levofloxacin and methicillin-resistant Staphylococcus aureus JCSC 6763 expressing gyrA Ser84Leu/Ser85Pro and grlA Ser80Phe/Glu84Lys mutants by broth microdilution method. It is filed as functional.
For test [14], the system named is Staphylococcus aureus. Put plainly: Bactericidal activity against low level levofloxacin and methicillin-resistant Staphylococcus aureus at 4 times MIC after 24 hrs by time-kill assay. It is filed as functional, organism-based.
For test [15], the system named is Staphylococcus aureus. The test can be described thus: Antimicrobial activity against levofloxacin-sensitive and methicillin-resistant Staphylococcus aureus JCSC 6770 by broth microdilution method. It is filed as functional.
Test [16] concerns Staphylococcus aureus. Put plainly: Antimicrobial activity against low level levofloxacin and methicillin-resistant Staphylococcus aureus JCSC 6768 expressing gyrA Glu84Lys and grlA Ser80Phe mutants by broth microdilution method. It is filed as functional.
Test [17] concerns Staphylococcus aureus. Put plainly: Bactericidal activity against low level levofloxacin and methicillin-resistant Staphylococcus aureus at 4 times MIC after 120 mins by time-kill assay. It is filed as functional, organism-based.
The test system of test [18] is Staphylococcus aureus. Put plainly: Bactericidal activity against high level levofloxacin and methicillin-resistant Staphylococcus aureus at 16 times MIC after 24 hrs by time-kill assay. It is filed as functional, organism-based.
The subject of test [19] is Staphylococcus aureus. Put plainly: Bactericidal activity against low level levofloxacin and methicillin-resistant Staphylococcus aureus at 16 times MIC after 24 hrs by time-kill assay. It is filed as functional, organism-based.
The subject of test [20] is Staphylococcus aureus. The test can be described thus: Antimicrobial activity against levofloxacin-sensitive and methicillin-resistant Staphylococcus aureus JCSC 6769 by broth microdilution method. It is filed as functional.
Test [21] deals with Staphylococcus aureus. The test can be described thus: Bactericidal activity against methicillin-resistant Staphylococcus aureus at 8 times MIC upto 60 mins by time-kill assay. It is filed as functional, organism-based.
Test [22] deals with Staphylococcus aureus. Put plainly: Bactericidal activity against methicillin-resistant Staphylococcus aureus at 16 times MIC upto 60 mins by time-kill assay. It is filed as functional, organism-based.
The test system of test [23] is Staphylococcus aureus. Put plainly: Bactericidal activity against high level levofloxacin and methicillin-resistant Staphylococcus aureus at 2048 ug/ml after 24 hrs by time-kill assay. It is filed as functional, organism-based.
In test [24] the test system is Staphylococcus aureus. Put plainly: Bactericidal activity against levofloxacin-sensitive and methicillin-resistant Staphylococcus aureus at 16 times MIC after 24 hrs by time-kill assay. It is filed as functional, organism-based.
Test [25] deals with Staphylococcus aureus. Put plainly: Bactericidal activity against low level levofloxacin and methicillin-resistant Staphylococcus aureus at 8 times MIC after 120 mins by time-kill assay. It is filed as functional, organism-based.
The subject of test [26] is Staphylococcus aureus. Put plainly: Bactericidal activity against high level levofloxacin and methicillin-resistant Staphylococcus aureus at 4 times MIC after 24 hrs by time-kill assay. It is filed as functional, organism-based.
Test [27] has as its system Staphylococcus aureus. The test can be described thus: Antimicrobial activity against levofloxacin-sensitive and methicillin-resistant Staphylococcus aureus JCSC 6822 harboring mutation in norA gene by broth microdilution method. It is filed as functional.

Converted amounts (≈) assume the structure as drawn. The source made the active and inactive calls. The calls are words filed in the database; no cut-off is given here.

Turning to `COc1c(N2CCNC(C)C2)c(F)cc2c(=O)c(C(=O)O)cn(C3CC3)c12` (stereo not given) [GATIFLOXACIN], the MIC in the test with Staphylococcus aureus [1] was determined as 32 µg/mL (≈ 85.2 µM); with Staphylococcus aureus [7], 2 µg/mL (≈ 5.33 µM); with Staphylococcus aureus [8], 2 µg/mL (≈ 5.33 µM); with Staphylococcus aureus [12], 16 µg/mL (≈ 42.6 µM); against Staphylococcus aureus [13], 128 µg/mL (≈ 341 µM); with Staphylococcus aureus [15], 0.125 µg/mL (≈ 0.333 µM). The results for the MIC against Staphylococcus aureus [16], in the test on Staphylococcus aureus [20] and against Staphylococcus aureus [27] were 2 µg/mL (≈ 5.33 µM), 0.125 µg/mL (≈ 0.333 µM) and 0.125 µg/mL (≈ 0.333 µM), respectively. The outcome with Staphylococcus aureus [2], in the test on Staphylococcus aureus [21] and with Staphylococcus aureus [22] was inactive. Besides, the outcome with Staphylococcus aureus [3], with Staphylococcus aureus [4], in the test with Staphylococcus aureus [5], in the test with Staphylococcus aureus [6], in the test with Staphylococcus aureus [9] and in the test on Staphylococcus aureus [10] was Active. The result in the test with Staphylococcus aureus [11], in the test on Staphylococcus aureus [14], in the test with Staphylococcus aureus [17], with Staphylococcus aureus [18], with Staphylococcus aureus [19] and in the test on Staphylococcus aureus [23] was Active. In addition, the result in the test on Staphylococcus aureus [24], in the test with Staphylococcus aureus [25] and in the test on Staphylococcus aureus [26] was Active.
`C[C@H]1COc2c(N3CCN(C)CC3)c(F)cc3c(=O)c(C(=O)O)cn1c23.C[C@H]1COc2c(N3CCN(C)CC3)c(F)cc3c(=O)c(C(=O)O)cn1c23.O` [LEVOFLOXACIN]: the MIC was determined as 256 µg/mL in the test on Staphylococcus aureus [1]; 8 µg/mL against Staphylococcus aureus [7]; 8 µg/mL with Staphylococcus aureus [8]; 64 µg/mL against Staphylococcus aureus [12]; 512 µg/mL against Staphylococcus aureus [13]; 0.25 µg/mL with Staphylococcus aureus [15]. In addition, the figures for the MIC in the test on Staphylococcus aureus [16], against Staphylococcus aureus [20] and in the test with Staphylococcus aureus [27] were 4 µg/mL, 0.5 µg/mL and 0.25 µg/mL, respectively. Also, the outcome in the test with Staphylococcus aureus [2], with Staphylococcus aureus [21] and with Staphylococcus aureus [22] was inactive. In addition, the result with Staphylococcus aureus [3], with Staphylococcus aureus [5], with Staphylococcus aureus [6], in the test with Staphylococcus aureus [9], in the test on Staphylococcus aureus [10] and with Staphylococcus aureus [11] was Active. Moreover, the result in the test with Staphylococcus aureus [14], in the test on Staphylococcus aureus [18], with Staphylococcus aureus [19], in the test on Staphylococcus aureus [23], in the test with Staphylococcus aureus [24] and in the test with Staphylococcus aureus [26] was Active.
Consider `Cc1onc(-c2ccccc2)c1C(=O)N[C@@H]1C(=O)N2[C@@H]1SC(C)(C)[C@@H]2C(=O)O` [OXACILLIN], for which the minimal inhibitory concentration (MIC) turned out to be 512 µg/mL (≈ 1280 µM) with Staphylococcus aureus [1]; 512 µg/mL (≈ 1280 µM) against Staphylococcus aureus [7]; 256 µg/mL (≈ 638 µM) in the test on Staphylococcus aureus [8]; 256 µg/mL (≈ 638 µM) against Staphylococcus aureus [12]; 512 µg/mL (≈ 1280 µM) in the test with Staphylococcus aureus [13]; 256 µg/mL (≈ 638 µM) against Staphylococcus aureus [15]. In addition, the MIC was determined as 256 µg/mL (≈ 638 µM) in the test with Staphylococcus aureus [16], 512 µg/mL (≈ 1280 µM) with Staphylococcus aureus [20] and 128 µg/mL (≈ 319 µM) against Staphylococcus aureus [27].

For the origin of these results see ChEMBL document CHEMBL1275457, “Postantibiotic effects and bactericidal activities of levofloxacin and gatifloxacin at concentrations simulating those of topical ophthalmic administration against fluoroquinolone-resistant and fluoroquinolone-sensitive methicillin-resistant Staphylococcus aureus strains” (2008).
